Experimental data from patent US20250179059A1 (The Regents of the University of California, priority 2021, published 2025).

Columns and labels:
[1] = target: T1, human BRD4 bromodomain II (Homo sapiens, UniProt O60885); experiment: Bromodomain binding assay (AlphaScreen), BRD4 BDII; settings: BRD4 BDII AlphaScreen assay; read-out: BRD4 BD2 IC50
T1 construct: human BRD4 bromodomain II [based on Genbank NM_058243, residues 349-460]; host or cells: E. coli
How it was run: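 E. coli-expressed N-terminal His6-tagged human BRD4 BDII (residues 349-460) or BDI (residues 44-170) was preincubated 30 min at room temperature with compound (10-point, 3-fold) in pH 7.5 HEPES buffer, 1% DMSO. Displacement of biotinylated tetra-acetylated H4 1-21 peptide was read by AlphaScreen, and IC50 came from curve fitting.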

[2] = tested on: human SKM-1 acute myeloid leukemia cells; experiment: SKM-1 antiproliferation cell-based assay (ATPlite); settings: Homo sapiens, SKM-1, SKM-1 antiproliferation assay
How it was run: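 Log-phase cells in RPMI 1640/15% FBS were seeded at 34722 cells/mL and exposed for 4 days to nine-concentration DMSO serial dilutions in triplicate. Viability was read as ATP luminescence (ATPlite 1step), and IC50 values came from variable-slope non-linear regression.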

Row | IC50 [1] [nM] | GI50 [2] [nM] | Structure (SMILES)
1 | 1 to 10 | 0.3 to 30 | Cc1cc(-c2ccc(-n3ccn(C)c3=O)c(C)c2)c(O)c(-c2cccc(N3CCN(C(C)(C)C)CC3)c2)n1 [Example 1012, 1-(4-(2-(3-(4-(tert-butyl)piperazin-1-yl)phenyl)-3-hydroxy-6-methylpyridin-4-yl)-2-methylphenyl)-3-methyl-1H-imidazol-2(3H)-one]
2 | 1 to 10 | 0.3 to 30 | Cc1cc(-c2ccc(-n3ccn(C)c3=O)c(Cl)c2)c(O)c(-c2ccc(Cl)c(N3CCN(C(C)(C)C)CC3)c2)n1 [Example 1013, 1-(4-(2-(3-(4-(tert-butyl)piperazin-1-yl)-4-chlorophenyl)-3-hydroxy-6-methylpyridin-4-yl)-2-chlorophenyl)-3-methyl-1H-imidazol-2(3H)-one]
3 | 0.01 to 1 | 0.3 to 30 | Cc1cc(-c2ccc(-n3ccn(C)c3=O)c(Cl)c2)c(O)c(-c2cc(F)cc(N3CCN(C(C)(C)C)CC3)c2)n1 [Example 1014, 1-(4-(2-(3-(4-(tert-butyl)piperazin-1-yl)-5-fluorophenyl)-3-hydroxy-6-methylpyridin-4-yl)-2-chlorophenyl)-3-methyl-1H-imidazol-2(3H)-one]
4 | 0.01 to 1 | 0.3 to 30 | Cc1cc(-c2cccc(N3CCN(C(C)(C)C)CC3)c2)c(O)c(-c2ccc(-n3ccn(C)c3=O)c(Cl)c2)c1 [Example 1016, 1-(3″-(4-(tert-butyl)piperazin-1-yl)-3-chloro-2′-hydroxy-5′-methyl-[1,1′:3′,1″-terphenyl]-4-yl)-3-methyl-1H-imidazol-2(3H)-one]
5 | 1 to 10 | 30 to 300 | Cc1cc(-c2ccc(-n3ccn(C)c3=O)c(Cl)c2)c(O)c(-c2cnnc(N3CCN(C(C)(C)C)CC3)c2)n1 [Example 1017, 1-(4-(2-(6-(4-(tert-butyl)piperazin-1-yl)pyridazin-4-yl)-3-hydroxy-6-methylpyridin-4-yl)-2-chlorophenyl)-3-methyl-1H-imidazol-2(3H)-one]
6 | 1 to 10 | 0.3 to 30 | Cn1ccn(-c2ccc(-c3cc(Cl)cc(-c4cccc(N5CCN(C(C)(C)C)CC5)c4)c3O)cc2Cl)c1=O [Example 1024, 1-(3″-(4-(tert-butyl)piperazin-1-yl)-3,5′-dichloro-2′-hydroxy-[1,1′:3′,1″-terphenyl]-4-yl)-3-methyl-1H-imidazol-2(3H)-one]
7 | 0.01 to 1 | 0.3 to 30 | Cc1cc(-c2ccc(-n3ccn(C)c3=O)c(Cl)c2)c(O)c(-c2cc(F)c(F)c(N3CCN(C(C)(C)C)CC3)c2)n1 [Example 1026, 1-(4-(2-(3-(4-(tert-butyl)piperazin-1-yl)-4,5-difluorophenyl)-3-hydroxy-6-methylpyridin-4-yl)-2-chlorophenyl)-3-methyl-1H-imidazol-2(3H)-one]
8 | 0.01 to 1 | 0.3 to 30 | Cc1cc(-c2ccc(-n3ccn(C)c3=O)c(Cl)c2)c(O)c(-c2cc(N3CCN(C(C)(C)C)CC3)cc(F)c2F)n1 [Example 1027, 1-(4-(2-(5-(4-(tert-butyl)piperazin-1-yl)-2,3-difluorophenyl)-3-hydroxy-6-methylpyridin-4-yl)-2-chlorophenyl)-3-methyl-1H-imidazol-2(3H)-one]
9 | 1 to 10 | 0.3 to 30 | COc1cc(-c2ccc(-n3ccn(C)c3=O)c(Cl)c2)c(O)c(-c2cccc(N3CCN(C(C)(C)C)CC3)c2)n1 [Example 1028, 1-(4-(2-(3-(4-(tert-Butyl)piperazin-1-yl)phenyl)-3-hydroxy-6-methoxypyridin-4-yl)-2-chlorophenyl)-3-methyl-1H-imidazol-2(3H)-one]
10 | 0.01 to 1 | 0.3 to 30 | Cn1ccn(-c2ccc(-c3cc(F)nc(-c4cccc(N5CCN(C(C)(C)C)CC5)c4)c3O)cc2Cl)c1=O [Example 1029, 1-(4-(2-(3-(4-(tert-Butyl)piperazin-1-yl)phenyl)-6-fluoro-3-hydroxypyridin-4-yl)-2-chlorophenyl)-3-methyl-1H-imidazol-2(3H)-one]
11 | 1 to 10 | 30 to 300 | CNc1cc(-c2ccc(-n3ccn(C)c3=O)c(Cl)c2)c(O)c(-c2cccc(N3CCN(C(C)(C)C)CC3)c2)n1 [Example 1031, 1-(4-(2-(3-(4-(tert-Butyl)piperazin-1-yl)phenyl)-3-hydroxy-6-(methylamino)pyridin-4-yl)-2-chlorophenyl)-3-methyl-1H-imidazol-2(3H)-one]
12 | 10 to 100 | 30 to 300 | Cc1cc(-c2ccc(-n3cc[nH]c3=O)c(Cl)c2)c(O)c(-c2cccc(N3CCN(C(C)(C)C)CC3)c2)n1 [Example 1035, 1-(4-(2-(3-(4-(tert-butyl)piperazin-1-yl)phenyl)-3-hydroxy-6-methylpyridin-4-yl)-2-chlorophenyl)-1,3-dihydro-2H-imidazol-2-one]

Continued, compound first:

Row | Structure (SMILES) | IC50 [1] [nM] | GI50 [2] [nM]
13 | COc1ncc(-c2nc(C)cc(-c3ccc(-n4ccn(C)c4=O)c(C)c3)c2O)cc1N1CCN(C(C)(C)C)CC1 [Example 1015, 1-(4-(5′-(4-(tert-butyl)piperazin-1-yl)-3-hydroxy-6′-methoxy-6-methyl-[2,3′-bipyridin]-4-yl)-2-methylphenyl)-3-methyl-1H-imidazol-2(3H)-one] | 1 to 10 | 0.3 to 30
14 | Cn1cc(-c2ccc(-n3ccn(C)c3=O)c(Cl)c2)c(O)c(-c2cccc(N3CCN(C(C)(C)C)CC3)c2)c1=O [Example 1018, 3-(3-(4-(tert-butyl)piperazin-1-yl)phenyl)-5-(3-chloro-4-(3-methyl-2-oxo-2,3-dihydro-1H-imidazol-1-yl)phenyl)-4-hydroxy-1-methylpyridin-2(1H)-one] | 10 to 100 | 30 to 300
15 | Cc1cc(-c2ccc(-n3ccn(C)c3=O)c(C)c2)c(O)c(-c2cnc(C)c(N3CCN(C(C)(C)C)CC3)c2)n1 [Example 1019, 1-(4-(5′-(4-(tert-Butyl)piperazin-1-yl)-3-hydroxy-6,6′-dimethyl-[2,3′-bipyridin]-4-yl)-2-methylphenyl)-3-methyl-1,3-dihydro-2H-imidazol-2-one] | 1 to 10 | 0.3 to 30
16 | Cn1ccn(-c2ccc(-c3cnnc(-c4cccc(N5CCN(C(C)(C)C)CC5)c4)c3O)cc2Cl)c1=O [Example 1020, 1-(4-(6-(3-(4-(tert-Butyl)piperazin-1-yl)phenyl)-5-hydroxypyridazin-4-yl)-2-chlorophenyl)-3-methyl-1H-imidazol-2(3H)-one] | > 100 | 300 to 3000
17 | Cn1ccn(-c2ccc(-c3cccc(-c4cccc(N5CCN(C(C)(C)C)CC5)c4)c3O)cc2Cl)c1=O [Example 1021, 1-(3″-(4-(tert-butyl)piperazin-1-yl)-3-chloro-2′-hydroxy-[1,1′:3′,1″-terphenyl]-4-yl)-3-methyl-1H-imidazol-2(3H)-one] | 0.01 to 1 | 0.3 to 30
18 | COc1ncc(-c2nc(C)cc(-c3ccc(-n4ccn(C)c4=O)c(Cl)c3)c2O)cc1N1CC[C@]2(CCN2C(C)C)C1 [Example 1022, (R)-1-(2-chloro-4-(3-hydroxy-5′-(1-isopropyl-1,6-diazaspiro[3.4]octan-6-yl)-6'-methoxy-6-methyl-[2,3′-bipyridin]-4-yl)phenyl)-3-methyl-1,3-dihydro-2H-imidazol-2-one] | 0.01 to 1 | 0.3 to 30
19 | COc1ncc(-c2nc(C)cc(-c3ccc(-n4ccn(C)c4=O)c(Cl)c3)c2O)cc1N1CC[C@@]2(CCN2C(C)C)C1 [Example 1023, (S)-1-(2-chloro-4-(3-hydroxy-5′-(1-isopropyl-1,6-diazaspiro[3.4]octan-6-yl)-6'-methoxy-6-methyl-[2,3′-bipyridin]-4-yl)phenyl)-3-methyl-1,3-dihydro-2H-imidazol-2-one] | 0.01 to 1 | 0.3 to 30
20 | Cn1ccn(-c2ccc(-c3cc(C(F)(F)F)cc(-c4cccc(N5CCN(C(C)(C)C)CC5)c4)c3O)cc2Cl)c1=O [Example 1025, 1-(3″-(4-(tert-butyl)piperazin-1-yl)-3-chloro-2′-hydroxy-5′-(trifluoromethyl)-[1,1′:3′,1″-terphenyl]-4-yl)-3-methyl-1H-imidazol-2(3H)-one] | 1 to 10 | 300 to 3000
21 | Cn1cc(-c2cccc(N3CCN(C(C)(C)C)CC3)c2)c(O)c(-c2ccc(-n3ccn(C)c3=O)c(Cl)c2)c1=O [Example 1030, 5-(3-(4-(tert-Butyl)piperazin-1-yl)phenyl)-3-(3-chloro-4-(3-methyl-2-oxo-2,3-dihydro-1H-imidazol-1-yl)phenyl)-4-hydroxy-1-methylpyridin-2(1H)-one] | 10 to 100 | 300 to 3000
22 | Cc1cc(-c2ccc(-n3ccn(C)c3=O)c(Cl)c2)c(O)c(-c2ccnc(N3CCC4(CCC(=O)N4)C3)c2)n1 (stereo not drawn) [Example 1032, 7-(4-(3-chloro-4-(3-methyl-2-oxo-2,3-dihydro-1H-imidazol-1-yl)phenyl)-3-hydroxy-6-methyl-[2,4′-bipyridin]-2′'-yl)-1,7-diazaspiro[4.4]nonan-2-one] | 0.01 to 1 | 0.3 to 30
23 | Cc1cc(-c2ccc(-n3ccn(C)c3=O)c(Cl)c2)c(O)c(-c2ccnc(N3CC(F)(F)[C@@](C)(O)C3)c2)n1 [Example 1036, (S)-1-(2-chloro-4-(2′-(3,3-difluoro-4-hydroxy-4-methylpyrrolidin-1-yl)-3-hydroxy-6-methyl-[2,4′-bipyridin]-4-yl)phenyl)-3-methyl-1,3-dihydro-2H-imidazol-2-one] | 1 to 10 | 30 to 300
24 | Cc1cc(-c2ccc(-n3ccn(C)c3=O)c(Cl)c2)c(O)c(-c2ccnc(N3CC(F)(F)[C@](C)(O)C3)c2)n1 [Example 1037, (R)-1-(2-chloro-4-(2′-(3,3-difluoro-4-hydroxy-4-methylpyrrolidin-1-yl)-3-hydroxy-6-methyl-[2,4′-bipyridin]-4-yl)phenyl)-3-methyl-1,3-dihydro-2H-imidazol-2-one] | 1 to 10 | 0.3 to 30
